Source: ChEMBL document CHEMBL1697692, “Developing structure-activity relationships for the prediction of hepatotoxicity” (Chem Res Toxicol, 2010)

The molecules below were run on Hepatotoxicity (assay: Literature-mined public compounds from Greene et al multi-species hepatotoxicity modelling dataset).
`CCCN(CCC)S(=O)(=O)c1ccc(C(=O)O)cc1` [PROBENECID] was tested, and the Hepatotoxicity was “WE: Weak evidence (<10 case reports) of human hepatotoxicity”.
`CC(C)(Sc1cc(C(C)(C)C)c(O)c(C(C)(C)C)c1)Sc1cc(C(C)(C)C)c(O)c(C(C)(C)C)c1` [PROBUCOL] was tested, and the Hepatotoxicity was “NE: No evidence of hepatotoxicity in any species”.
With `CNNCc1ccc(C(=O)NC(C)C)cc1.Cl` [PROCARBAZINE HYDROCHLORIDE] the Hepatotoxicity was “HH: Evidence of human hepatotoxicity”.
For `CN1CCN(CCCN2c3ccccc3Sc3ccc(Cl)cc32)CC1.O=C(O)/C=C\C(=O)O.O=C(O)/C=C\C(=O)O` [PROCHLORPERAZINE MALEATE], the Hepatotoxicity was “HH: Evidence of human hepatotoxicity”.
With `CC(=O)[C@H]1CC[C@H]2[C@@H]3CCC4=CC(=O)CC[C@]4(C)[C@H]3CC[C@]12C` [PROGESTERONE] the Hepatotoxicity was “HH: Evidence of human hepatotoxicity”.
In the case of `CN(C)CCCN1c2ccccc2Sc2ccccc21.Cl` [PROMAZINE HYDROCHLORIDE], the Hepatotoxicity is reported as “WE: Weak evidence (<10 case reports) of human hepatotoxicity”.
`CC(CN1c2ccccc2Sc2ccccc21)N(C)C.Cl` (configuration not stated) [PROMETHAZINE HYDROCHLORIDE] was tested, and the Hepatotoxicity was “NE: No evidence of hepatotoxicity in any species”.
For `CC(C)c1cccc(C(C)C)c1O` [PROPOFOL], the Hepatotoxicity was “NE: No evidence of hepatotoxicity in any species”.
With `CC(C)NCC(O)COc1cccc2ccccc12` (configuration not stated) [PROPRANOLOL] the Hepatotoxicity was “NE: No evidence of hepatotoxicity in any species”.
With `CN[C@@H](C)[C@@H](O)c1ccccc1.Cl` [PSEUDOEPHEDRINE HYDROCHLORIDE] the Hepatotoxicity was “NE: No evidence of hepatotoxicity in any species”.
For `COc1ccc(C[C@H](N)C(=O)N[C@H]2[C@@H](O)[C@H](n3cnc4c(N(C)C)ncnc43)O[C@@H]2CO)cc1` [PUROMYCIN], the Hepatotoxicity was “AH: Evidence for animal hepatotoxicity but not tested in humans”.
For `NC(=O)c1cnccn1` [PYRAZINAMIDE], the Hepatotoxicity was “HH: Evidence of human hepatotoxicity”.
With `CN(C)C(=O)Oc1ccc[n+](C)c1.[Br-]` [PYRIDOSTIGMINE BROMIDE] the Hepatotoxicity was “NE: No evidence of hepatotoxicity in any species”.
`Cc1ncc(CO)c(CO)c1O` [PYRIDOXINE] was tested, and the Hepatotoxicity was “NE: No evidence of hepatotoxicity in any species”.
With `CCc1nc(N)nc(N)c1-c1ccc(Cl)cc1` [PYRIMETHAMINE] the Hepatotoxicity was “HH: Evidence of human hepatotoxicity”.
For `C=C[C@H]1C[N@@]2CC[C@H]1C[C@@H]2[C@@H](O)c1ccnc2ccc(OC)cc12` [QUINIDINE], the Hepatotoxicity was “HH: Evidence of human hepatotoxicity”.
`C=C[C@H]1CN2CC[C@H]1C[C@H]2[C@H](O)c1ccnc2ccc(OC)cc12.C=C[C@H]1CN2CC[C@H]1C[C@H]2[C@H](O)c1ccnc2ccc(OC)cc12.O.O.O=S(=O)(O)O` [QUININE SULFATE] was tested, and the Hepatotoxicity was “HH: Evidence of human hepatotoxicity”.
`C=C[C@H]1C[N@@]2CC[C@H]1C[C@H]2[C@H](O)c1ccnc2ccc(OC)cc12` [QUININE] was tested, and the Hepatotoxicity was “HH: Evidence of human hepatotoxicity”.
In the case of `CCO[C@@H](Cc1ccc(OCCN2c3ccccc3Oc3ccccc32)cc1)C(=O)O` [RAGAGLITAZAR], the Hepatotoxicity is reported as “NE: No evidence of hepatotoxicity in any species”.
`O=C(c1ccc(OCCN2CCCCC2)cc1)c1c(-c2ccc(O)cc2)sc2cc(O)ccc12` [RALOXIFENE] was tested, and the Hepatotoxicity was “WE: Weak evidence (<10 case reports) of human hepatotoxicity”.
In the case of `CNC(=C[N+](=O)[O-])NCCSCc1ccc(CN(C)C)o1` [RANITIDINE], the Hepatotoxicity is reported as “WE: Weak evidence (<10 case reports) of human hepatotoxicity”.
`NC(=O)c1ncn([C@@H]2O[C@H](CO)[C@@H](O)[C@H]2O)n1` [RIBAVIRIN] was tested, and the Hepatotoxicity was “WE: Weak evidence (<10 case reports) of human hepatotoxicity”.
`CO[C@H]1/C=C/O[C@@]2(C)Oc3c(C)c(O)c4c(c3C2=O)C2=NC3(CCN(CC(C)C)CC3)NC2=C(NC(=O)/C(C)=C\C=C\[C@H](C)[C@H](O)[C@@H](C)[C@@H](O)[C@@H](C)[C@H](OC(C)=O)[C@@H]1C)C4=O` [RIFABUTIN] was tested, and the Hepatotoxicity was “HH: Evidence of human hepatotoxicity”.
In the case of `CO[C@H]1/C=C/O[C@@]2(C)Oc3c(C)c(O)c4c(O)c(c(/C=N/N5CCN(C)CC5)c(O)c4c3C2=O)NC(=O)/C(C)=C\C=C\[C@H](C)[C@H](O)[C@@H](C)[C@@H](O)[C@@H](C)[C@H](OC(C)=O)[C@@H]1C` [RIFAMPIN], the Hepatotoxicity is reported as “WE: Weak evidence (<10 case reports) of human hepatotoxicity”.
`Nc1nc2ccc(OC(F)(F)F)cc2s1` [RILUZOLE] was tested, and the Hepatotoxicity was “HH: Evidence of human hepatotoxicity”.
With `Cc1nc2n(c(=O)c1CCN1CCC(c3noc4cc(F)ccc34)CC1)CCCC2` [RISPERIDONE] the Hepatotoxicity was “HH: Evidence of human hepatotoxicity”.
With `CC(C)c1nc(CN(C)C(=O)N[C@H](C(=O)N[C@@H](Cc2ccccc2)C[C@H](O)[C@H](Cc2ccccc2)NC(=O)OCc2cncs2)C(C)C)cs1` [RITONAVIR] the Hepatotoxicity was “HH: Evidence of human hepatotoxicity”.
`CN(CCOc1ccc(CC2SC(=O)NC2=O)cc1)c1ccccn1` (configuration not stated) [ROSIGLITAZONE] was tested, and the Hepatotoxicity was “WE: Weak evidence (<10 case reports) of human hepatotoxicity”.
In the case of `C=C(C)[C@H]1Cc2c(ccc3c2O[C@@H]2COc4cc(OC)c(OC)cc4[C@@H]2C3=O)O1` [ROTENONE], the Hepatotoxicity is reported as “AH: Evidence for animal hepatotoxicity but not tested in humans”.
In the case of `CC(C)(C)NC(=O)[C@@H]1C[C@@H]2CCCC[C@@H]2CN1C[C@@H](O)[C@H](Cc1ccccc1)NC(=O)[C@H](CC(N)=O)NC(=O)c1ccc2ccccc2n1.CS(=O)(=O)O` [SAQUINAVIR MESYLATE], the Hepatotoxicity is reported as “HH: Evidence of human hepatotoxicity”.
With `CN[C@H]1CC[C@@H](c2ccc(Cl)c(Cl)c2)c2ccccc21` [SERTRALINE] the Hepatotoxicity was “WE: Weak evidence (<10 case reports) of human hepatotoxicity”.
For `O=C([O-])O.[Na+]` [SODIUM BICARBONATE], the Hepatotoxicity was “AH: Evidence for animal hepatotoxicity but not tested in humans”.
In the case of `[Cl-].[Na+]` [SODIUM CHLORIDE], the Hepatotoxicity is reported as “NE: No evidence of hepatotoxicity in any species”.
`OC[C@@H](O)[C@@H](O)[C@H](O)[C@@H](O)CO` [SORBITOL] was tested, and the Hepatotoxicity was “NE: No evidence of hepatotoxicity in any species”.
With `CC(=O)S[C@@H]1CC2=CC(=O)CC[C@]2(C)[C@H]2CC[C@@]3(C)[C@@H](CC[C@@]34CCC(=O)O4)[C@H]12` [SPIRONOLACTONE] the Hepatotoxicity was “HH: Evidence of human hepatotoxicity”.
With `Cc1cn([C@H]2C=C[C@@H](CO)O2)c(=O)[nH]c1=O` [STAVUDINE] the Hepatotoxicity was “HH: Evidence of human hepatotoxicity”.
With `CN[C@@H]1[C@H](O[C@H]2[C@H](O[C@H]3[C@H](O)[C@@H](O)[C@H](N=C(N)N)[C@@H](O)[C@@H]3N=C(N)N)O[C@@H](C)[C@]2(O)C=O)O[C@@H](CO)[C@H](O)[C@H]1O.CN[C@@H]1[C@H](O[C@H]2[C@H](O[C@H]3[C@H](O)[C@@H](O)[C@H](N=C(N)N)[C@@H](O)[C@@H]3N=C(N)N)O[C@@H](C)[C@]2(O)C=O)O[C@@H](CO)[C@H](O)[C@H]1O.O=S(=O)(O)O.O=S(=O)(O)O.O=S(=O)(O)O` [STREPTOMYCIN SULFATE] the Hepatotoxicity was “NE: No evidence of hepatotoxicity in any species”.
In the case of `[H]/N=C(/N)N[C@H]1[C@H](O)[C@@H](O)[C@H](O[C@@H]2O[C@@H](C)[C@](O)(C=O)[C@H]2O[C@@H]2O[C@@H](CO)[C@H](O)[C@@H](O)[C@@H]2NC)[C@@H](N/C(N)=N\[H])[C@@H]1O` [STREPTOMYCIN], the Hepatotoxicity is reported as “NE: No evidence of hepatotoxicity in any species”.
With `CN(N=O)C(=O)N[C@@H](C=O)[C@@H](O)[C@H](O)[C@H](O)CO` [STREPTOZOCIN] the Hepatotoxicity was “NE: No evidence of hepatotoxicity in any species”.
`Clc1ccc(CSC(Cn2ccnc2)c2ccc(Cl)cc2Cl)cc1.O=[N+]([O-])O` (configuration not stated) [SULCONAZOLE NITRATE] was tested, and the Hepatotoxicity was “NE: No evidence of hepatotoxicity in any species”.
For `Nc1ccc(S(=O)(=O)NC(=O)c2ccccc2)cc1` [SULFABENZAMIDE], the Hepatotoxicity was “NE: No evidence of hepatotoxicity in any species”.
With `Cc1nnc(NS(=O)(=O)c2ccc(N)cc2)s1` [SULFAMETHIZOLE] the Hepatotoxicity was “HH: Evidence of human hepatotoxicity”.
With `Nc1ccc(S(N)(=O)=O)cc1` [SULFANILAMIDE] the Hepatotoxicity was “HH: Evidence of human hepatotoxicity”.
`O=C(O)c1cc(/N=N/c2ccc(S(=O)(=O)Nc3ccccn3)cc2)ccc1O` [SULFASALAZINE] was tested, and the Hepatotoxicity was “HH: Evidence of human hepatotoxicity”.
With `O=C1C(CC[S+]([O-])c2ccccc2)C(=O)N(c2ccccc2)N1c1ccccc1` (configuration not stated) [SULFINPYRAZONE] the Hepatotoxicity was “HH: Evidence of human hepatotoxicity”.
For `Nc1c2c(nc3ccccc13)CCCC2` [TACRINE], the Hepatotoxicity was “AH: Evidence for animal hepatotoxicity but not tested in humans”.
With `Cc1nc(C)c2c(n1)N(Cc1ccc(-c3ccccc3-c3nnn[nH]3)cc1)C(=O)CC2` [TASOSARTAN] the Hepatotoxicity was “HH: Evidence of human hepatotoxicity”.
In the case of `C[C@H](CCC(=O)NCCS(=O)(=O)O)[C@H]1CC[C@H]2[C@@H]3[C@@H](O)C[C@@H]4C[C@H](O)CC[C@]4(C)[C@H]3CC[C@]12C` [TAURURSODIOL], the Hepatotoxicity is reported as “HH: Evidence of human hepatotoxicity”.
In the case of `CC[C@H]1OC(=O)[C@H](C)C(=O)[C@H](C)[C@@H](O[C@@H]2O[C@H](C)C[C@H](N(C)C)[C@H]2O)[C@](C)(OC)C[C@@H](C)C(=O)[C@H](C)[C@H]2N(CCCCn3cnc(-c4cccnc4)c3)C(=O)O[C@]12C` [TELITHROMYCIN], the Hepatotoxicity is reported as “HH: Evidence of human hepatotoxicity”.
With `CC1CN(c2cc3c(cc2F)c(=O)c(C(=O)O)cn3-c2ccc(F)cc2F)CCN1` (configuration not stated) [TEMAFLOXACIN] the Hepatotoxicity was “HH: Evidence of human hepatotoxicity”.
For `CC(C)(C)c1ccc(C(O)CCCN2CCC(C(O)(c3ccccc3)c3ccccc3)CC2)cc1` (configuration not stated) [TERFENADINE], the Hepatotoxicity was “NE: No evidence of hepatotoxicity in any species”.
In the case of `CCCCNc1ccc(C(=O)OCCN(C)C)cc1.Cl` [TETRACAINE HYDROCHLORIDE], the Hepatotoxicity is reported as “NE: No evidence of hepatotoxicity in any species”.
In the case of `CN(C)[C@@H]1C(O)=C(C(N)=O)C(=O)[C@@]2(O)C(O)=C3C(=O)c4c(O)cccc4[C@@](C)(O)[C@H]3C[C@@H]12` [TETRACYCLINE], the Hepatotoxicity is reported as “HH: Evidence of human hepatotoxicity”.
For `Cn1c(=O)c2[nH]cnc2n(C)c1=O.O` [THEOPHYLLINE], the Hepatotoxicity was “NE: No evidence of hepatotoxicity in any species”.
In the case of `Cc1ncc(C[n+]2csc(CCO)c2C)c(N)n1` [THIAMINE ION], the Hepatotoxicity is reported as “NE: No evidence of hepatotoxicity in any species”.
With `CC(=N)S` [THIOACETAMIDE] the Hepatotoxicity was “AH: Evidence for animal hepatotoxicity but not tested in humans”.
For `CN1c2ccccc2C(NCCCCCCC(=O)O)c2ccc(Cl)cc2S1(=O)=O` (configuration not stated) [TIANEPTINE], the Hepatotoxicity was “HH: Evidence of human hepatotoxicity”.
